Where a name gives a salt, the structure may show the parent alone.
Tested on: blood, cerebellum, spinal cord
Test: Transcriptional profiling, chronic dosing, EAE mice: blood, cerebellum, spinal cord
Assay type: in vivo
Settings: for Number of differentially expressed genes identified: Cerebellum / Number of differentially expressed genes identified: Spinal Cord / Number of differentially expressed genes identified: Whole blood: EAE, Chronic Dosing
Experimental: 2011 March 134(Pt3): 678-92. […] FIG. 17 depicts exemplary immunophenotyping panels used to analyze various immune cell populations (e.g., T cells, T regulatory cells, NK cells, B cells, myeloid cells). […] Animals were exposed to CO2 and whole blood collected via cardiac puncture. Two 100 μl aliquots of whole blood were collected in 1.5 mL microcentrifuge tubes and snap frozen in liquid nitrogen. Peripheral (liver, spleen, kidney and jejunum) and CNS brain (cerebellum, hippocampus, striatum and cortex) tissues were harvested and snap frozen in liquid nitrogen, with special care taken to collect tissues of similar size and from the same location. All samples were stored at -80° C. until RNA extraction was conducted. For RNA preparation, frozen tissues were placed in 2 mL RNAse-free 96-well blocks with 1.5 mL QIAzol Lysis Reagent (QIAgen) and a 3.2 mm stainless steel bead (BioSpec Products, Bartlesville, Okla.). Tissues were disrupted for four cycles of 45 seconds in a Mini-Beadbeater (Biospec Products). RNA was extracted in chloroform and the aqueous phase was mixed with an equal volume of 70% ethanol. Extracted RNA was applied to RNeasy 96 plates and purified by the spin method according to the manufacturer's protocol (RNeasy 96 Universal Tissue Protocol, QIAgen, Hilden Germany). 50 ul of snap frozen mouse blood was re-suspended in lysis buffer with proteinase K and arrayed into deep-well plates for automated RNA extraction. RNA extractions were completed on […] (Beckman Coulter, Indianapolis, Ind.) using Agencourt RNAdvance Blood kit (Part number A35604) according to the manufacturer's specifications. RNA integrity was assessed using the HT RNA reagent kit (Part number 760410, Caliper Life Sciences, Hopkinton, Mass.) using a LabChip GX (PerkinElmer, Waltham, Mass.). RNA samples with a RQS score of >8.0 were considered high quality for downstream microarray processing. […] Washing and staining of the hybridized arrays were completed as described in the GeneChip Expression analysis technical manual for HT plate arrays using the Genechip® Array Station (Affymetrix, Santa Clara, Calif.) with modifications as described in […] et al. The processed GeneChip® plate arrays were scanned using GeneTitan scanner (Affymetrix, Santa Clara, Calif.). Affymetrix scans were subject to quality control (QC) measures. These tests included a visual inspection of the distribution of raw signal intensities and an assessment of RNA degradation, relative log expression (RLE), and normalized unscaled standard error (NUSE). All sample scans that passed these QC metrics were included in the analysis. […] Nucleic Acids Res 2003; 31:e15; Li C, et al. Genome Biol 2001; 2:[…]0032). […] Stat Appl Genet Mol Biol 2004; 3:Article3). […] Springer Science+Business Media 2005).

[1] = 100 mpk DMF-vs-90 mpk MMF, 7 h after last dosing
[2] = 100 mpk DMF-vs-90 mpk MMF, 12 h after last dosing
[3] = 100 mpk DMF-vs-Vehicle, 7 h after last dosing
[4] = 100 mpk DMF-vs-Vehicle, 12 h after last dosing
[5] = spinal cord, 100DMF-vs-90MMF, 7 h
[6] = spinal cord, 100DMF-vs-90MMF, 12 h
[7] = spinal cord, 100DMF-vs-Veh, 7 h
[8] = spinal cord, 100DMF-vs-Veh, 12 h
[9] = tissue not given, 100DMF-vs-90MMF, 7 h
[10] = tissue not given, 100DMF-vs-90MMF, 12 h
[11] = 90 mpk MMF-vs-Vehicle, 7 h after last dosing
[12] = 90 mpk MMF-vs-Vehicle, 12 h after last dosing
[13] = spinal cord, 100MMF-vs-Veh, 7 h
[14] = spinal cord, 100MMF-vs-Veh, 12 h
[15] = tissue not given, 100MMF-vs-Veh, 12 h

Compound: COC(=O)/C=C/C(=O)OC [DMF, dimethyl fumarate]
- Number of differentially expressed genes identified: Cerebellum [1]: 2
- Number of differentially expressed genes identified: Spinal Cord [1]: 2
- Number of differentially expressed genes identified: Whole blood [1]: 0
- Number of differentially expressed genes identified: Cerebellum [2]: 3
- Number of differentially expressed genes identified: Spinal Cord [2]: 40
- Number of differentially expressed genes identified: Whole blood [2]: 0
- Number of differentially expressed genes identified: Cerebellum [3]: 0
- Number of differentially expressed genes identified: Spinal Cord [3]: 3
- Number of differentially expressed genes identified: Whole blood [3]: 8
- Number of differentially expressed genes identified: Cerebellum [4]: 0
- Number of differentially expressed genes identified: Spinal Cord [4]: 3
- Number of differentially expressed genes identified: Whole blood [4]: 8
- FC 2900055J20Rik (1430675_PM_at) [5]: −1.58
- FC LOC100047123 (1446154_PM_at) [5]: −1.56
- FC 1423020_PM_at (no gene symbol) [6]: 1.59
- FC 1440425_PM_at (no gene symbol) [6]: 1.57
- FC 1440449_PM_at (no gene symbol) [6]: 1.61
- FC 1441606_PM_at (no gene symbol) [6]: 1.57
- FC 1442650_PM_at (no gene symbol) [6]: 1.92
- FC 1442813_PM_at (no gene symbol) [6]: 2.21
- FC 1443212_PM_at (no gene symbol) [6]: 1.82
- FC 1443237_PM_at (no gene symbol) [6]: 1.59
- FC 1444001_PM_at (no gene symbol) [6]: 1.58
- FC 1446481_PM_at (no gene symbol) [6]: 1.59
- FC 1447354_PM_at (no gene symbol) [6]: 1.54
- FC 1458147_PM_at (no gene symbol) [6]: 1.60
- FC 1458697_PM_at (no gene symbol) [6]: 1.72
- FC 1459235_PM_at (no gene symbol) [6]: 1.65
- FC 1459288_PM_at (no gene symbol) [6]: 1.66
- FC 1459310_PM_at (no gene symbol) [6]: 1.87
- FC 2410089E03Rik 1443422_PM_at [6]: 1.55
- FC 2410089E03Rik (1458493_PM_a_at) [6]: 2.00
- FC 4933439F18Rik (1427068_PM_x_at) [6]: 1.52
- FC 6330436F06Rik (1433015_PM_at) [6]: 1.52
- FC 9330156P08Rik (1458073_PM_at) [6]: 2.08
- FC A230006K03Rik (1432408_PM_a_at) [6]: 1.59
- FC A730034C02 /// Mtap2 (1421327_PM_at) [6]: 1.69
- FC B230112I24Rik (1433187_PM_at) [6]: 1.64
- FC BC066028 (1439850_PM_at) [6]: 1.56
- FC Cdk14 (1453956_PM_a_at) [6]: 1.76
- FC Dnajc27 (1434946_PM_at) [6]: 1.85
- FC Dnm3 (1446265_PM_at) [6]: 1.54
- FC Fgf14 (1449958_PM_a_at) [6]: 1.76
- FC Flnb (1445534_PM_at) [6]: 1.55
- FC Gzma (1417898_PM_a_at) [6]: −5.32
- FC Htr2c (1450477_PM_at) [6]: 1.65
- FC Kif22 (1423813_PM_at) [6]: −1.68
- FC Per3 (1442243_PM_at) [6]: 1.54
- FC Pole (1448650_PM_a_at) [6]: −1.60
- FC Rgs7bp (1437559_PM_at) [6]: 1.50
- FC Sema6d (1446536_PM_at) [6]: 1.57
- FC Sgol1 (1418919_PM_at) [6]: −1.61
- FC Slc25a27 (1440090_PM_at) [6]: 1.56
- FC Zfp398 (1456639_PM_at) [6]: 1.57
- FC Aox1 (1419435_PM_at) [7]: 1.68
- FC Rnf128 (1418318_PM_at) [7]: 1.72
- FC Rnf128 (1449036_PM_at) [7]: 1.60
- FC 1446104_PM_at (no gene symbol) [8]: 1.57
- FC Gzma (1417898_PM_a_at) [8]: −4.64
- FC Kif22 (1423813_PM_at) [8]: −1.62
- FC 1459289_PM_at (no gene symbol) [9]: 1.52
- FC Nr4a2 (1455034_PM_at) [9]: −1.51
- FC 1444901_PM_at (no gene symbol) [10]: −1.68
- FC Cyp4f16 /// Gm9705 (1430172_PM_a_at) [10]: 1.54
- FC Nr4a3 (1438796_PM_at) [10]: −1.82

Compound: COC(=O)/C=C/C(=O)O [MMF, monomethyl fumarate]
- Number of differentially expressed genes identified: Cerebellum [11]: 2
- Number of differentially expressed genes identified: Spinal Cord [11]: 7
- Number of differentially expressed genes identified: Whole blood [11]: 19
- Number of differentially expressed genes identified: Cerebellum [12]: 3
- Number of differentially expressed genes identified: Spinal Cord [12]: 2
- Number of differentially expressed genes identified: Whole blood [12]: 7
- FC Agxt2l1 (1431406_PM_at) [13]: 1.78
- FC Cxcl11 (1419697_PM_at) [13]: −3.36
- FC Ddx58 (1436562_PM_at) [13]: −1.67
- FC Ifi44 (1423555_PM_a_at) [13]: −1.99
- FC Ifit1 (1450783_PM_at) [13]: −1.67
- FC Plac8 (1451335_PM_at) [13]: −2.04
- FC Tor3a (1450454_PM_at) [13]: −1.57
- FC 1439946_PM_at (no gene symbol) [14]: −1.62
- FC Dbp (1418174_PM_at) [14]: −1.58
- FC 1459557_PM_at (no gene symbol) (tissue not given, 100MMF-vs-Veh, 7 h): 2.30
- FC 1442025_PM_a_at (no gene symbol) [15]: −1.84
- FC 1442026_PM_at (no gene symbol) [15]: −1.91
- FC 4933423P22Rik (1454223_PM_at) [15]: 1.53

— patent US20160115540A1, “PRODRUGS AND DRUGS” (Biogen MA Inc., priority 2013, published 2016)
